{
  "source": "patent US20170071975A1",
  "about": "“COMPOSITIONS AND METHODS FOR TREATING DEPRESSIVE DISORDERS” (Steerwasher, LLC, priority 2014, published 2017)",
  "key": {"[1]": {"tested_on": "patients with treatment-resistant depression", "set-up": "species or system human", "conditions": "in vivo", "procedure": "(§1) The gas mix was administered via a standard anesthesia facemask through tubing connected to an anesthesia machine. A small sample connector line was inserted into the facemask allowing the measurement of inhaled and exhaled gas concentrations. Total gas flow was between 4-8 L/min. Patients were monitored during and after the treatment according to American Society of Anesthesiologists standard which includes continuous 3-lead ECG, pulsoximetry, non-invasive blood pressure and end-tidal CO2 under the supervision of an attending-level anesthesiologists. After the one-hour treatment session, patients were transferred and monitored for 2 hours. A study team physician determined if the patients met criteria for discharge before patients were discharged.\n(§2) Outcomes were assessed at six time points for each patient (three per session; two sessions): within each session at baseline, 2 hours, and 24 hours after treatment. Primary study endpoint was the change on the 21-point Hamilton Depression Rating Scale (HDRS). Secondary endpoints included a change on the Quick Inventory of Depressive Symptoms Self Report (QIDS-SR) scale. At baseline, the Brief Psychiatric Rating Scale (BPRS) was also administered. Psychiatric safety endpoints were assessed via standard scales for psychosis and the Columbia suicide scale. Other safety endpoints included cardiovascular, respiratory and central nervous system adverse events determined by hemodynamic and respiratory monitoring. Nitrous oxide-induced inactivation of vitamin B12 was determined by measurement of plasma total homocysteine before and after treatment."}, "[2]": {"tested_on": "patients with treatment-resistant depression", "assay": "Same crossover trial; Quick Inventory of Depressive Symptoms Self Report (QIDS-SR) scale", "format": "in vivo, human", "conditions": "Table 4", "procedure": "(§3) Primary endpoint was the change on the 21-point Hamilton Depression Rating Scale (HRDS).\n(§4) This study was designed as a randomized, placebo-controlled crossover pilot clinical trial. […] The order of the session was randomly assigned by a random number generator. Other than the gas mixture administered, both sessions were indistinguishable from each other in setting, setup, and monitoring.\nas §1\nas §2, with “monitoring.” for “monitoring. Nitrous oxide-induced inactivation of vitamin B12 was determined by measurement of plasma total homocysteine before and after treatment.”"}, "[3]": {"tested_on": "patients with treatment-resistant depression", "assay": "Blinded, randomized placebo-controlled crossover trial; 21-point Hamilton Depression Rating Scale (HDRS/HRDS)", "format": "in vivo, human", "source_text": "as §3, §4\nPatients were recruited from an existing database of treatment-resistant depression patients administered by the Washington University Department of Psychiatry as well as from the “Volunteers for Health” patient pool within the Washington University School of Medicine. […] Patients were instructed not to suspend their standard of care treatment for major depression. Patients were required to maintain a stable medication regiment without changes for 4 weeks prior to initiation of the study and continue on the same dose throughout.\nas §1\nas §2, with “monitoring.” for “monitoring. Nitrous oxide-induced inactivation of vitamin B12 was determined by measurement of plasma total homocysteine before and after treatment.”\nThe primary outcome was analyzed with a mixed effects repeated measures linear model that included three interactions (treatment; time; randomization group) using restricted maximum likelihood estimation.\nFor the analysis of paired data, such as the levels of HRDS, we used the Wilcoxon signed-rank test. To compare the rates of treatment responses and remissions between the two treatments and using the paired data structure, an exact binomial test was used (and corresponding odds ratios calculated) as the number of discordant pairs was <20. Data are presented as mean±SD or 95% confidence intervals, or as median and interquartile range. Because this is the first in-human patient pilot study, no prior knowledge existed for adequate sample size determination. […] JMP Pro 11.1 and SAS 9.3 (SAS Institute, Cary, N.C.), as well as Prism 6.04 (GraphPad Software, Inc., La Jolla, Calif.) were used for the statistical analysis and graphing."}, "[4]": {"conditions": "24 hours after treatment, HRDS levels"}},
  "data": [
    {"smiles": "[N-]=[N+]=O", "note": "[nitrous oxide]", "values": [
      {"measurement": "Adverse Event: Anxiety", "setting": "[1]; human, 1 h", "value": 2},
      {"measurement": "Adverse Event: Anxiety (percent)", "setting": "[1]; human, 1 h", "value": "(10%)"},
      {"measurement": "Adverse Event: Claustrophobia", "setting": "[1]; human, 1 h", "value": 1, "unit": "no."},
      {"measurement": "Adverse Event: Claustrophobia (percent)", "setting": "[1]; human, 1 h", "value": "(5%)"},
      {"measurement": "Adverse Event: Dizziness/Lightheadedness", "setting": "[1]; human, 1 h", "value": 1, "unit": "no."},
      {"measurement": "Adverse Event: Dizziness/Lightheadedness (percent)", "setting": "[1]; human, 1 h", "value": "(5%)"},
      {"measurement": "Adverse Event: Headache", "setting": "[1]; human, 1 h", "value": 2, "unit": "no."},
      {"measurement": "Adverse Event: Headache (percent)", "setting": "[1]; human, 1 h", "value": "(10%)"},
      {"measurement": "Adverse Event: Hypercapnia", "setting": "[1]; human, 1 h", "value": 0},
      {"measurement": "Adverse Event: Hyperventilation", "setting": "[1]; human, 1 h", "value": 1, "unit": "no."},
      {"measurement": "Adverse Event: Hyperventilation (percent)", "setting": "[1]; human, 1 h", "value": "(5%)"},
      {"measurement": "Adverse Event: Nausea and vomiting", "setting": "[1]; human, 1 h", "value": 3, "unit": "no."},
      {"measurement": "Adverse Event: Nausea and vomiting (percent)", "setting": "[1]; human, 1 h", "value": "(15%)"},
      {"measurement": "Adverse Event: Numbness/Paresthesia", "setting": "[1]; human, 1 h", "value": 2},
      {"measurement": "Adverse Event: Numbness/Paresthesia (percent)", "setting": "[1]; human, 1 h", "value": "(10%)"},
      {"measurement": "Adverse Event: Panic Attack", "setting": "[1]; human, 1 h", "value": 1},
      {"measurement": "Adverse Event: Panic Attack (percent)", "setting": "[1]; human, 1 h", "value": "(5%)"},
      {"measurement": "Adverse Event: Regurgitation", "setting": "[1]; human, 1 h", "value": 1, "unit": "no."},
      {"measurement": "Adverse Event: Regurgitation (percent)", "setting": "[1]; human, 1 h", "value": "(5%)"},
      {"measurement": "course of adverse events", "setting": "[1]", "value": "temporary and resolved shortly after completion"},
      {"measurement": "patients in whom the treatment had to be interrupted or discontinued due to adverse events", "setting": "[1]", "value": "five"},
      {"measurement": "patients who completed the full 60-minute treatment", "setting": "[1]", "value": "Fifteen"},
      {"measurement": "psychotomimetic side effects (delusion, hallucination)", "setting": "[1]", "value": "appeared to be devoid of psychotomimetic side effects"},
      {"measurement": "response on the QIDS scale: change 0 (percent)", "setting": "[2]", "value": 50, "unit": "%"},
      {"measurement": "response on the QIDS scale: change of 1 level, first arrow (P00003, presumably worse) (percent)", "setting": "[2]", "value": 10, "unit": "%"},
      {"measurement": "response on the QIDS scale: change of 1 level, second arrow (P00004, presumably better) (percent)", "setting": "[2]", "value": 15, "unit": "%"},
      {"measurement": "response on the QIDS scale: change of 2 levels, second arrow (P00004, presumably better) (percent)", "setting": "[2]", "value": 25, "unit": "%"},
      {"measurement": "Change in Level of Depression Severity: Better, 1 level (patients)", "setting": "[3]; [4]", "value": "7/20"},
      {"measurement": "Change in Level of Depression Severity: Better, 1 level (percent)", "setting": "[3]; [4]", "value": "(35%)"},
      {"measurement": "Change in Level of Depression Severity: Better, 2 levels (patients)", "setting": "[3]; [4]", "value": "3/20"},
      {"measurement": "Change in Level of Depression Severity: Better, 2 levels (percent)", "setting": "[3]; [4]", "value": "(15%)"},
      {"measurement": "Change in Level of Depression Severity: Better, 3 levels (patients)", "setting": "[3]; [4]", "value": "3/20"},
      {"measurement": "Change in Level of Depression Severity: Better, 3 levels (percent)", "setting": "[3]; [4]", "value": "(15%)"},
      {"measurement": "Change in Level of Depression Severity: Better, 4 levels (patients)", "setting": "[3]; [4]", "value": "1/20"},
      {"measurement": "Change in Level of Depression Severity: Better, 4 levels (percent)", "setting": "[3]; [4]", "value": "(5%)"},
      {"measurement": "Change in Level of Depression Severity: Neutral, 0 (patients)", "setting": "[3]; [4]", "value": "6/20"},
      {"measurement": "Change in Level of Depression Severity: Neutral, 0 (percent)", "setting": "[3]; [4]", "value": "(30%)"},
      {"measurement": "Change in Level of Depression Severity: Worse, 1 level (patients)", "setting": "[3]; [4]", "value": 0},
      {"measurement": "mean change in HDRS score", "setting": "[3]; 24 hours after treatment, full cohort (20 patients), 50% nitrous oxide/50% oxygen for 1 hour, compared to baseline and placebo", "value": "−5.5", "unit": "points"},
      {"measurement": "full remission rate (HRDS <7 points)", "setting": "[3]; 24 hours, 20 patients", "value": 15, "unit": "%"},
      {"measurement": "treatment response rate (reduction >50% on the HRDS)", "setting": "[3]; 24 hours, 20 patients", "value": 20, "unit": "%"},
      {"measurement": "mean reduction of HRDS", "setting": "[3]; 24 hours, first treatment session only (10 patients who received nitrous oxide first)", "value": "−8.6", "unit": "points"},
      {"measurement": "patients with at least a 2-level improvement of depression severity on the HRDS", "setting": "[3]; 24 hours, out of twenty patients, five severity levels", "value": 7, "unit": "patients"},
      {"measurement": "patients with at least a 2-level improvement of depression severity on the HRDS, percent", "setting": "[3]; 24 hours, twenty patients", "value": 35, "unit": "%"},
      {"measurement": "duration of antidepressant effects", "setting": "[3]; after a single, one-hour treatment with 50% nitrous oxide", "value": "at least 24 hours"},
      {"measurement": "mean reduction in depressive symptoms on HRDS", "setting": "[3]; full cohort", "value": 5.5, "unit": "points"},
      {"measurement": "mean reduction in depressive symptoms on HRDS", "setting": "[3]; ten patients who received the nitrous oxide treatment first", "value": 8.6, "unit": "points"}
    ]}
  ]
}
